Reference: patent US20050227956A1, “Control of mold growth on wood” (priority 2004, published 2005)
Like-named read-outs stand apart in the source and are kept apart here. Marks after values point to notes of the source that are not given here.

Key:
Assay in all cases: Six-well plate screening test
Assay type in all cases: cell-based
Alternaria alternata = conditions: for MIC: single moldicide or ACQ-C alone, incubation period 14 days
[1] = tested on: Cladosporium cladosporioides; conditions: for MIC: single moldicide or ACQ-C alone, incubation period 14 days
Penicillium funiculosum = conditions: for MIC: single moldicide or ACQ-C alone, incubation period 14 days
Aureobasidium pullulans = conditions: for MIC: single moldicide or ACQ-C alone, incubation period 14 days
Aspergillus niger = tested on: Aspergillus niger
Trichoderma virens = conditions: for MIC: single moldicide or ACQ-C alone, incubation period 14 days
Stachybotrus charatrum = tested on: Stachybotrus charatrum
[2] = 10 days of incubation at room temperature

| Compound | Minimum Inhibitory Concentrations (MIC) (Alternaria alternata; [2]) | Minimum Inhibitory Concentrations (MIC) [1, 2] | Minimum Inhibitory Concentrations (MIC) (Penicillium funiculosum; [2]) | Minimum Inhibitory Concentrations (MIC) (Aureobasidium pullulans; [2]) | Minimum Inhibitory Concentrations (MIC) (Aspergillus niger; [2]) | Minimum Inhibitory Concentrations (MIC) (Trichoderma virens; [2]) | Minimum Inhibitory Concentrations (MIC) (Stachybotrus charatrum; [2]) | Minimum Inhibitory Concentrations (MIC) (Alternaria alternata) | Minimum Inhibitory Concentrations (MIC) [1] | Minimum Inhibitory Concentrations (MIC) (Penicillium funiculosum) | Minimum Inhibitory Concentrations (MIC) (Stachybotrus charatrum) | Minimum Inhibitory Concentrations (MIC) (Aureobasidium pullulans) | Minimum Inhibitory Concentrations (MIC) (Aspergillus niger) | Minimum Inhibitory Concentrations (MIC) (Trichoderma virens) | MIC (Alternaria alternata) | MIC [1] | MIC (Penicillium funiculosum) | MIC (Aureobasidium pullulans) | MIC (Aspergillus niger; single moldicide or ACQ-C alone, incubation period 14 days) | MIC (Trichoderma virens) |
| --- | --- | --- | --- | --- | --- | --- | --- | --- | --- | --- | --- | --- | --- | --- | --- | --- | --- | --- | --- | --- |
| CC(C)NC(=O)N1CC(=O)N(c2cc(Cl)cc(Cl)c2)C1=O [Iprodione, 3-(3,5-dichlorophenyl)-N-isopropyl-2,4-dioxoimidazolidine-1-carboxamide] | 100 mg/kg | >101 mg/kg | >102 mg/kg | >100 mg/kg | 10 mg/kg | >100 mg/kg | – | – | – | – | – | – | – | – | – | – | – | – | – | – |
| N#Cc1c[nH]cc1-c1cccc(Cl)c1Cl [Fenpiclonil, 4-(2,3-dichlorophenyl)-1H-pyrrole-3-carbonitrile] | 50 mg/kg | 10 mg/kg | >100 mg/kg | 50 mg/kg | 1 mg/kg | >100 mg/kg | 10 mg/kg | – | – | – | – | – | – | – | – | – | – | – | – | – |
| COC(=O)Nc1nc2ccccc2[nH]1 [Carbendazim, methyl benzimidazol-2-ylcarbamate] | >100 mg/kg | 1^a mg/kg | 1 mg/kg | 0.1 mg/kg | 5 mg/kg | 1 mg/kg | – | – | – | – | – | – | – | – | – | – | – | – | – | – |
| CO/C=C(/C(=O)OC)c1ccccc1Oc1cc(Oc2ccccc2C#N)ncn1 [Azoxystrobin, methyl (E)-2-{2-[6-(2-cyanophenoxy)pyrimidin-4-yloxy]phenyl}-3-methoxyacrylate] | >100 mg/kg | >100 mg/kg | >100 mg/kg | >100 mg/kg | >100 mg/kg | >100 mg/kg | 25 mg/kg | – | – | – | – | – | – | – | – | – | – | – | – | – |
| CC(C)(C)C(=O)C(Oc1ccc(Cl)cc1)n1cncn1 (racemic) [Tridimefon, (RS)-1-(4-chlorophenoxy)-3,3-dimethyl-1-(1H-1,2,4-triazol-1-yl)butan-2-one] | >100 mg/kg | >100 mg/kg | >100 mg/kg | >100 mg/kg | >100 mg/kg | >100 mg/kg | >100 mg/kg | – | – | – | – | – | – | – | – | – | – | – | – | – |
| CC1(c2ccc(Oc3ccccc3)cc2)OC(=O)N(Nc2ccccc2)C1=O (racemic) [FAMOXATE, (RS)-3-anilino-5-methyl-5-(4-phenoxyphenyl)-1,3-oxazolidine-2,4-dione] | >100 mg/kg | >100 mg/kg | >100 mg/kg | >100 mg/kg | >100 mg/kg | >100 mg/kg | >100 mg/kg | – | – | – | – | – | – | – | – | – | – | – | – | – |
| CC(Cc1ccc(C(C)(C)C)cc1)CN1C[C@@H](C)O[C@@H](C)C1 (mixture of isomers) [Fenpropimorph, (RS)-cis-4-[3-(4-tert-butylphenyl)-2-methylpropyl]-2,6-dimethylmorpholine] | 50 mg/kg | 50 mg/kg | >100 mg/kg | 10 mg/kg | >100 mg/kg | 10 mg/kg | 10 mg/kg | – | – | – | – | – | – | – | – | – | – | – | – | – |
| bis(8-hydroxyquinolinium) sulfate [8-hydroxyquinoline] | – | – | – | – | – | – | – | 25 mg/kg | 25 mg/kg | 25 mg/kg | 10 mg/kg | 50 mg/kg | 100 mg/kg | 25 mg/kg | – | – | – | – | – | – |
| CC(C)(C)C(O)C(Oc1ccc(Cl)cc1)n1cncn1 (stereo not drawn) [BAYTAN, (1RS,2RS; 1RS,2SR)-1-(4-chlorophenoxy)-3,3-dimethyl-1-(1H-1,2,4-triazol-1-yl)butan-2-ol] | >100 mg/kg | 50 mg/kg | >100 mg/kg | 50 mg/kg | >100 mg/kg | >100 mg/kg | >100 mg/kg | – | – | – | – | – | – | – | – | – | – | – | – | – |
| S=C([S-])NCCNC(=S)[S-].[Na+].[Na+] [Nabam, disodium ethylenebis(dithiocarbamate)] | >100 mg/kg | 100 mg/kg | >100 mg/kg | 100 mg/kg | 100 mg/kg | 100 mg/kg | 100 mg/kg | – | – | – | – | – | – | – | – | – | – | – | – | – |
| CCNC(=O)NC(=O)C(C#N)=NOC [Cymoxinil, 1-(2-cyano-2-methoxyiminoacetyl)-3-ethylurea] | >100 mg/kg | >100 mg/kg | >100 mg/kg | >100 mg/kg | 10 mg/kg | >100 mg/kg | >100 mg/kg | – | – | – | – | – | – | – | >100 mg/kg | >100 mg/kg | >100 mg/kg | >100 mg/kg | >100 mg/kg | >100 mg/kg |
| N#CSCSc1nc2ccccc2s1 [TCMBT, 2-(thiocyanomethylthio)benzothiazole] | 300 mg/kg | 30 mg/kg | 30 mg/kg | 300 mg/kg | – | 3 mg/kg | 3 mg/kg | – | – | – | – | – | – | – | 300 mg/kg | 30 mg/kg | 30 mg/kg | 300 mg/kg | – | 3 mg/kg |
| O=[N+]([O-])c1cc(C(F)(F)F)c(Cl)c([N+](=O)[O-])c1Nc1ncc(C(F)(F)F)cc1Cl [Fluazinam, 3-chloro-N-(3-chloro-5-trifluoromethyl-2-pyridyl)-alpha,alpha,alpha-trifluoro-2,6-dinitro-p-toluidine] | 10 mg/kg | 1 mg/kg | 10 mg/kg | 1 mg/kg | 1 mg/kg | >100 mg/kg | – | – | – | – | – | – | – | – | – | – | – | – | – | – |
| CCCCNC(=O)n1c(NC(=O)OC)nc2ccccc21 [Benomyl, methyl 1-(butylcarbamoyl)benzimidazol-2-ylcarbamate] | >100 mg/kg | 1^a mg/kg | 1 mg/kg | 100 mg/kg | 10 mg/kg | 1 mg/kg | – | – | – | – | – | – | – | – | – | – | – | – | – | – |
